# Measurements: patent publication US6670446B1, “N1 modified glycopeptides” (Eli Lilly and Company, priority 1998, dated 2003)
# Columns and labels:
# Format in all cases: cell-based
# [1] = tested on: Staphylococcus epidermidis 270; assay: MIC, standard broth micro-dilution assay, SE 270
# Experimental: (§1) The antibacterial efficacy of the present compounds is illustrated by Table III. The minimal inhibitory concentrations (MICs) were determined using a standard broth micro-dilution assay.
# [2] = tested on: Enterococcus faecalis 276; assay: MIC, standard broth micro-dilution assay, EF 276
# Experimental: as §1
# [3] = tested on: Haemophilus influenzae RD; assay: MIC, standard broth micro-dilution assay, HFRD
# Experimental: as §1
# [4] = tested on: Resistant Enterococcus faecium and faecalis; assay: MIC, standard broth micro-dilution assay, Resistant; settings: geometric mean of 4-6 isolates
# Experimental: as §1
# [5] = tested on: Staphylococcus aureus 491; assay: MIC, standard broth micro-dilution assay, SA 491
# Experimental: as §1
# Enterococcus faecium 180 = assay: MIC, standard broth micro-dilution assay, EF 180
# Experimental: as §1
# [6] = tested on: Staphylococcus haemolyticus 415; assay: MIC, standard broth micro-dilution assay, SH 415
# Experimental: as §1
# [7] = tested on: Staphylococcus aureus X400; assay: MIC, standard broth micro-dilution assay, SA X400
# Experimental: as §1
# [8] = tested on: Enterococcus gallinarum 245; assay: MIC, standard broth micro-dilution assay, EG 245
# Experimental: as §1
# [9] = tested on: Enterococcus faecium 180-1; assay: MIC, standard broth micro-dilution assay, EF 180-1
# Experimental: as §1
# [10] = tested on: Staphylococcus aureus 446; assay: MIC, standard broth micro-dilution assay, SA 446
# Experimental: as §1
# [11] = tested on: Staphylococcus aureus 489; assay: MIC, standard broth micro-dilution assay, SA 489
# Experimental: as §1
# [12] = tested on: Enterococcus faecalis 2041; assay: MIC, standard broth micro-dilution assay, EF 2041
# Experimental: as §1
# [13] = tested on: Staphylococcus aureus SA1199A; assay: MIC, standard broth micro-dilution assay, SA 1199A
# Experimental: as §1
# [14] = tested on: Staphylococcus haemolyticus 105; assay: MIC, standard broth micro-dilution assay, SH 105
# Experimental: as §1
# [15] = tested on: Staphylococcus aureus SA1199; assay: MIC, standard broth micro-dilution assay, SA 1199
# Experimental: as §1
# [16] = tested on: Staphylococcus aureus X778; assay: MIC, standard broth micro-dilution assay, SA X778
# Experimental: as §1
# [17] = tested on: Sensitive Enterococcus faecium and faecalis; assay: MIC, standard broth micro-dilution assay, Sensitive; settings: geometric mean of 4-6 isolates
# Experimental: as §1
# Escherichia coli EC14 = assay: MIC, standard broth micro-dilution assay, EC 14
# Experimental: as §1
# [18] = tested on: Staphylococcus aureus S13E
# Experimental: as §1
# [19] = tested on: Staphylococcus aureus 447; assay: MIC, standard broth micro-dilution assay, SA 447
# Experimental: as §1
Structure (SMILES),"minimal inhibitory concentration (MIC), SE 270 [1]","minimal inhibitory concentration (MIC), EF 276 [2]","minimal inhibitory concentration (MIC), HFRD [3]","minimal inhibitory concentration (MIC), Resistant [4]","minimal inhibitory concentration (MIC), SA 491 [5]","minimal inhibitory concentration (MIC), EF 180 (Enterococcus faecium 180)","minimal inhibitory concentration (MIC), SH 415 [6]","minimal inhibitory concentration (MIC), SA X400 [7]","minimal inhibitory concentration (MIC), EG 245 [8]","minimal inhibitory concentration (MIC), EF 180-1 [9]","minimal inhibitory concentration (MIC), SA 446 [10]","minimal inhibitory concentration (MIC), SA 489 [11]","minimal inhibitory concentration (MIC), EF 2041 [12]","minimal inhibitory concentration (MIC), SA 1199A [13]","minimal inhibitory concentration (MIC), SH 105 [14]","minimal inhibitory concentration (MIC), SA 1199 [15]","minimal inhibitory concentration (MIC), SA X778 [16]","minimal inhibitory concentration (MIC), Sensitive [17]","minimal inhibitory concentration (MIC), EC 14 (Escherichia coli EC14)","minimal inhibitory concentration (MIC), SA S13E [18]",also measured
"CC(C)CC(NCc1ccc(-c2ccccc2)cc1)C(=O)NC1C(=O)NC(CC(N)=O)C(=O)NC2C(=O)NC3C(=O)NC(C(=O)NC(C(=O)O)c4cc(O)cc(O)c4-c4cc3ccc4O)C(OC3CC(C)(N)C(O)C(C)O3)c3ccc(c(Cl)c3)Oc3cc2cc(c3OC2OC(CO)C(O)C(O)C2OC2CC(C)(N)C(O)C(C)O2)Oc2ccc(cc2Cl)C1O [Example 34, N^1-[N-(p-phenylbenzyl)-D-leucine] derivative of desleucylA82846B]",0.25,≦.06,64,38,≦.06,2,4,≦.06,≦.06,≦.06,0.125,≦.06,0.25,≦.06,≦.06,0.125,≦.06,0.44,>64,≦.06,"minimal inhibitory concentration (MIC), SA 447 [19]: 0.125"
"CC1OC(OC2c3ccc(c(Cl)c3)Oc3cc4cc(c3OC3OC(CO)C(O)C(O)C3OC3CC(C)(NCc5ccc(-c6ccccc6)cc5)C(O)C(C)O3)Oc3ccc(cc3Cl)C(O)C(NC(=O)C(N)CCCCN)C(=O)NC(CC(N)=O)C(=O)NC4C(=O)NC3C(=O)NC2C(=O)NC(C(=O)O)c2cc(O)cc(O)c2-c2cc3ccc2O)CC(C)(N)C1O [Example 23, N^1-D-lysine derivative of N^DISACC-(p-phenylbenzyl)desleucylA82846B]",0.125,0.25,>64,2,0.5,0.5,1,2,0.125,≦.06,1,0.5,0.5,0.25,1,0.5,2,0.29,>64,2,"minimal inhibitory concentration (MIC), SA 447 [19]: 1"
"CC1OC(OC2C(Oc3c4cc5cc3Oc3ccc(cc3Cl)[C@@H](O)[C@@H](NC(=O)[C@H]3CCCN3C(=O)OC(C)(C)C)C(=O)N[C@@H](CC(N)=O)C(=O)N[C@H]5C(=O)N[C@H]3C(=O)NC(C(=O)N[C@H](C(=O)O)c5cc(O)cc(O)c5-c5cc3ccc5O)[C@H](OC3CC(C)(N)C(O)C(C)O3)c3ccc(c(Cl)c3)O4)OC(CO)C(O)C2O)CC(C)(N)C1O (stereo partly drawn) [Example 24, N^1-(N-BOC-D-proline) derivative of desleucylA82846B]",2,1,>64,>128,1,>64,32,2,8,1,4,2,1,1,16,2,1,4,>64,2,"minimal inhibitory concentration (MIC), SA 447 [19]: 4"
"CC(C)CC(NC(=O)OC(C)(C)C)C(=O)NC1C(=O)NC(CC(N)=O)C(=O)NC2C(=O)NC3C(=O)NC(C(=O)NC(C(=O)O)c4cc(O)cc(O)c4-c4cc3ccc4O)C(OC3CC(C)(N)C(O)C(C)O3)c3ccc(c(Cl)c3)Oc3cc2cc(c3OC2OC(CO)C(O)C(O)C2OC2CC(C)(NCc3ccc(-c4ccccc4)cc3)C(O)C(C)O2)Oc2ccc(cc2Cl)C1O [Example 18, N^1-(N-BOC-D-leucine) derivative of N^DISACC-(p-phenylbenzyl)desleucylA82846B]",0.25,0.5,16,27,≦.06,2,1,0.25,1,0.5,0.5,0.125,≦.06,no growth,1,0.5,0.25,0.87,>64,0.5,"minimal inhibitory concentration (MIC), SA 447 [19]: 0.5"
"CC1OC(OC2c3ccc(c(Cl)c3)Oc3cc4cc(c3OC3OC(CO)C(O)C(O)C3OC3CC(C)(NCc5ccc(-c6ccc(Cl)cc6)cc5)C(O)C(C)O3)Oc3ccc(cc3Cl)C(O)C(NC(=O)CCCCCCCc3ccccc3)C(=O)NC(CC(N)=O)C(=O)NC4C(=O)NC3C(=O)NC2C(=O)NC(C(=O)O)c2cc(O)cc(O)c2-c2cc3ccc2O)CC(C)(N)C1O (stereo not drawn) [Example 8, N^1-(8-phenyl-n-octanoyl)-N^DISACC-[p-(p-chlorophenyl)benzyl]desleucylA82846B]",8,1,>64,4,4,2,8,8,2,1,16,8,2,2,2,4,4,2,>64,8,"minimal inhibitory concentration (MIC), SA 447 [19]: 8"
